What was measured:
[1] = cited from earlier work; for hyperammonemia as adverse event: literature
[2] = human, in vivo
From the text: The pharmacovigilance data that were collected, reviewed and analyzed provided the following information in respect of the incidence of hyperammonemia. A total of 4 cases fulfilled the criteria of potential hyperammonemia cases. These cases were reviewed in detail for evaluation of possible safety signals. Two US cases were reported as either high ammonia levels or increased ammonia. Two Japanese cases were reported as hyperammonemia.
Of these, two (2) cases (both ZON1000262 and ZON1000346) had strong confounding factors and seem to-be unrelated to zonisamide, but the possibility of zonisamide involvement cannot be completely excluded. The two cases of hyperammonemia originated from Japan and both involved adult patients. Both cases were serious and described as life-threatening. […]
Estimates of exposure, based upon retail and mail order prescriptions, indicate that the number of unique patients taking zonisamide capsules in the U.S. is about 37,276 (total prescriptions per year/average number of prescriptions per patient per year less a calculated percentage decrease based on estimated annual dropouts) in the time between approval in 2000 and December 2002. […] Similarly, the incidences of NMS estimated herein are unlikely to be higher than calculated. Based on the exposure data and number of hyperammonemia cases, the incidence of hyperammonemia is calculated to be about […].

sodium channels = settings: in vitro; cited from earlier work
[3] = upon reaching a stable dose or following dosage adjustment; cited from earlier work
rat hippocampal slices = settings: 10-30 μg/mL; cited from earlier work
T-type Ca^2+ currents = settings: in vitro; cited from earlier work
carbonic anhydrase = settings: fraction of acetazolamide inhibition; cited from earlier work
[4] = tested on: dopaminergic and serotonergic neurotransmission; settings: in vivo microdialysis; cited from earlier work
[5] = tested on: cultured mouse spinal cord neurons; settings: 10-30 μg/mL; cited from earlier work
[6] = tested on: GABA/benzodiazepine receptor ionophore complex; settings: in vitro; cited from earlier work
hepatic enzyme = settings: cited from earlier work

Structure (SMILES)	hyperammonemia as adverse event [1]	cases of hyperammonemia associated with the drug ([1]; since 1979 (O'Neil et al. 2002))	cases fulfilling the criteria of potential hyperammonemia cases [2]	incidence of hyperammonemia [2]	effect on sodium channels (sodium channels)	time required to achieve steady-state levels [3]	neuronal or glial uptake of [3H]-GABA (rat hippocampal slices)	effect on voltage-dependent, transient inward currents (T-type Ca2+ currents) (T-type Ca^2+ currents)	carbonic anhydrase inhibition compared to acetazolamide (carbonic anhydrase)	dopaminergic and serotonergic neurotransmission [4]	postsynaptic GABA or glutamate responses [5]	synaptically-driven electrical activity [5]	binding to GABA/benzodiazepine receptor ionophore complex [6]	hepatic enzyme induction (hepatic enzyme)
NC(=O)N1c2ccccc2C=Cc2ccccc21 [carbamazepine]	known to cause hyperammonemia													
CCCC(CCC)C(=O)O [valproate]	known to cause hyperammonemia	more than 30 cases												
NS(=O)(=O)Cc1noc2ccccc12 [zonisamide, 1,2-benzisoxazole-3-methanesulfonamide]			4 cases	about 1:1,222,453	blocks sodium channels	up to two weeks	without affecting	reduces	1/50	facilitates	without affecting	suppresses	binds to the GABA/benzodiazepine receptor ionophore complex in an allosteric fashion	not known to be a hepatic enzyme inducer

— patent US20050154032A1, “Methods of using zonisamide as an adjunctive therapy for partial seizures” (Eisai Co., Ltd, priority 2004, published 2005)
